System: p-ERK in PNAC-1/HPAC cell
Assay: Phospho-ERK 1/2 assay (Table 1)
Assay type: cell-based
Conditions: Homo sapiens; PNAC-1/HPAC cell, 3 hours compound incubation; read-out: p-ERK IC50
Procedure: (§1) Allow PNAC-1/HPAC cell growth in a T75 flask in DMEM and 10% 1 fetal calf serum (FCS; Gibco), using standard tissue culture procedures until ˜80% confluency is achieved. Day 1, seed 6000 cells/well in 384 well plate and incubate at 37° C., 5% CO2. Add diluted compound by Echo 550, final DMSO is 0.5%, incubate cells at 37° C., 5% CO2 for 3 hours. Then, remove medium and fix cells with 3.7% formaldehyde in PBS (PFA) by Apricot. Wash with PBS once. Permeabilize cells with cold 100% methanol and repeat wash once with PBS once. Add Li-Cor blocking buffer to each well and incubate 1.5 hours at RT. Remove blocking buffer and add primary antibody mixture (rabbit anti pERK, mouse anti GAPDH). Incubate at 4° C. overnight. Day 2, wash with PBST (Tween-20 in PBS) with total 3 times and then add secondary antibody mixture (goat anti rabbit 800CW (1:800 dilution in the combined solution) and goat anti mouse 680RD (1:800 dilution in the combined solution)), incubate for 60 minutes at RT away from light. Repeat washing with PBST 3 times. After final wash, centrifuge plate up-side-down at 1000 rpm to remove wash solution completely from wells. Before plate scanning, clean the bottom plate surface and the Odyssey* Imager scanning bed (if applicable) with moist, lint-free tissue to avoid any obstructions during scanning. Scan plate with detection in both 700 and 800 nm channels.

SMILES	IC50 [nM]
C#Cc1c(F)ccc2cccc(-c3nc4c5c(nc(OCC6(CN7CCOCC7)CC6)nc5c3F)N3C[C@H]5CC[C@H](N5)[C@H]3CO4)c12 [Compound 40, (5aS)-2-(8-ethynyl-7-fluoronaphthalen-1-yl)-1-fluoro-12-((1-(morpholinomethyl)cyclopropyl)methoxy)-5a,6,7,8,9,10-hexahydro-5H-4-oxa-3,10a,11,13,14-pentaaza-6,9-methanonaphtho[1,8-ab]heptalene]	155
Oc1cc(-c2nc3c4c(nc(OC[C@@]56CCCN5C[C@H](F)C6)nc4c2F)N2C[C@@H]4CC[C@@H](N4)C2CO3)c2c(F)cccc2c1 (stereo partly drawn) [Compound 6, 5-fluoro-4-((6R,9S)-1-fluoro-12-(((2R,7aS)-2-fluorotetrahydro-1H-pyrrolizin-7a(5H)-yl)methoxy)-5a,6,7,8,9,10-hexahydro-5H-4-oxa-3,10a,11,13,14-pentaaza-6,9-methanonaphtho[1,8-ab]heptalen-2-yl)naphthalen-2-ol]	86
C#Cc1c(F)ccc2cccc(-c3nc4c5c(nc(OC[C@@]67CCCN6C[C@H](F)C7)nc5c3F)N3CC5CCC(N5)[C@@H]3CO4)c12 (single isomer, unassigned) [Compound 9]	308
C#Cc1cccc2cccc(-c3nc4c5c(nc(OC[C@@]67CCCN6C[C@H](F)C7)nc5c3F)N3C[C@@H]5CC[C@@H](N5)C3CO4)c12 (stereo partly drawn) [Compound 19, (6R,9S)-2-(8-ethynylnaphthalen-1-yl)-1-fluoro-12-(((2R,7aS)-2-fluorotetrahydro-1H-pyrrolizin-7a(5H)-yl)methoxy)-5a,6,7,8,9,10-hexahydro-5H-4-oxa-3,10a,11,13,14-pentaaza-6,9-methanonaphtho[1,8-ab]heptalene]	29
Oc1cc(-c2nc3c4c(nc(OC[C@@]56CCCN5C[C@H](F)C6)nc4c2F)N2C[C@@H]4CC[C@@H](N4)C2CO3)c2cc(F)ccc2c1 (stereo partly drawn) [Compound 3, 6-fluoro-4-((6R,9S)-1-fluoro-12-(((2R,7aS)-2-fluorotetrahydro-1H-pyrrolizin-7a(5H)-yl)methoxy)-5a,6,7,8,9,10-hexahydro-5H-4-oxa-3,10a,11,13,14-pentaaza-6,9-methanonaphtho[1,8-ab]heptalen-2-yl)naphthalen-2-ol]	26
C#Cc1c(F)ccc2cccc(-c3nc4c5c(nc(OCC6(CN7CCOC8(CC8)C7)CC6)nc5c3F)N3CC5CCC(N5)[C@H]3CO4)c12 (stereo in doubt) [Compound 46, (5aS,6R,9S)-12-((1-((4-oxa-7-azaspiro[2.5]octan-7-yl)methyl)cyclopropyl)methoxy)-2-(8-ethynyl-7-fluoronaphthalen-1-yl)-1-fluoro-5a,6,7,8,9,10-hexahydro-5H-4-oxa-3,10a,11,13,14-pentaaza-6,9-methanonaphtho[1,8-ab]heptalene]	328
Oc1cc(-c2nc3c4c(nc(OCC56CCCN5CCC6)nc4c2F)N2C[C@@H]4CC[C@@H](N4)C2CO3)c2c(Cl)cccc2c1 (stereo partly drawn) [Compound 2, 5-chloro-4-((6R,9S)-1-fluoro-12-((tetrahydro-1H-pyrrolizin-7a(5H)-yl)methoxy)-5a,6,7,8,9,10-hexahydro-5H-4-oxa-3,10a,11,13,14-pentaaza-6,9-methanonaphtho[1,8-ab]heptalen-2-yl)naphthalen-2-ol]	730
C#Cc1c(F)ccc2cccc(-c3nc4c5c(nc(OC[C@@H]6C[C@@H](F)CN6C)nc5c3F)N3CC5CCC(N5)[C@H]3CO4)c12 (stereo in doubt) [Compound 32, (5aS,6R,9S)-2-(8-ethynyl-7-fluoronaphthalen-1-yl)-1-fluoro-12-(((2S,4R)-4-fluoro-1-methylpyrrolidin-2-yl)methoxy)-5a,6,7,8,9,10-hexahydro-5H-4-oxa-3,10a,11,13,14-pentaaza-6,9-methanonaphtho[1,8-ab]heptalene]	140
Oc1cc(-c2nc3c4c(nc(OC[C@@]56CCCN5C[C@H](F)C6)nc4c2F)N2C[C@@H]4CC[C@@H](N4)C2CO3)c2c(Cl)cccc2c1 (stereo partly drawn) [Compound 1, 5-Chloro-4-((6R,9S)-1-fluoro-12-(((2R,7aS)-2-fluorotetrahydro-1H-pyrrolizin-7a(5H)-yl)methoxy)-5a,6,7,8,9,10-hexahydro-5H-4-oxa-3,10a,11,13,14-pentaaza-6,9-methanonaphtho[1,8-ab]heptalen-2-yl)naphthalen-2-ol]	33
Oc1cc(-c2nc3c4c(nc(OC[C@@]56CCCN5C[C@H](F)C6)nc4c2F)N2C[C@H]4CC[C@H](N4)[C@H]2CO3)c2cc(F)ccc2c1 [Compound 30, 6-fluoro-4-((5aS,6S,9R)-1-fluoro-12-(((2R,7aS)-2-fluorotetrahydro-1H-pyrrolizin-7a(5H)-yl)methoxy)-5a,6,7,8,9,10-hexahydro-5H-4-oxa-3,10a,11,13,14-pentaaza-6,9-methanonaphtho[1,8-ab]heptalen-2-yl)naphthalen-2-ol]	17
C#Cc1c(F)ccc2cccc(-c3nc4c5c(nc(OCC6(CN7C8CCC7COC8)CC6)nc5c3F)N3CC5CCC(N5)[C@H]3CO4)c12 (stereo in doubt) [Compound 49, (5aS,6R,9S)-12-((1-((3-oxa-8-azabicyclo[3.2.1]octan-8-yl)methyl)cyclopropyl)methoxy)-2-(8-ethynyl-7-fluoronaphthalen-1-yl)-1-fluoro-5a,6,7,8,9,10-hexahydro-5H-4-oxa-3,10a,11,13,14-pentaaza-6,9-methanonaphtho[1,8-ab]heptalene]	851
Fc1cc2cccc(F)c2c(-c2nc3c4c(nc(OC[C@@]56CCCN5C[C@H](F)C6)nc4c2F)N2C[C@@H]4CC[C@@H](N4)C2CO3)n1 (stereo partly drawn) [Compound 18, (6R,9S)-2-(3,8-difluoroisoquinolin-1-yl)-1-fluoro-12-(((2R,7aS)-2-fluorotetrahydro-1H-pyrrolizin-7a(5H)-yl)methoxy)-5a,6,7,8,9,10-hexahydro-5H-4-oxa-3,10a,11,13,14-pentaaza-6,9-methanonaphtho[1,8-ab]heptalene]	404
Cc1cc(N)nc(-c2nc3c4c(nc(OC[C@@]56CCCN5C[C@H](F)C6)nc4c2F)N2CC4CCC(N4)[C@H]2CO3)c1C(F)(F)F (stereo in doubt) [Compound 53, 6-((5aS,6R,9S)-1-fluoro-12-(((2R,7aS)-2-fluorotetrahydro-1H-pyrrolizin-7a(5H)-yl)methoxy)-5a,6,7,8,9,10-hexahydro-5H-4-oxa-3,10a,11,13,14-pentaaza-6,9-methanonaphtho[1,8-ab]heptalen-2-yl)-4-methyl-5-(trifluoromethyl) pyridin-2-amine]	457
C#Cc1cccc2cc(O)cc(-c3nc4c5c(nc(OC[C@@]67CCCN6C[C@H](F)C7)nc5c3F)N3C[C@@H]5CC[C@@H](N5)C3CO4)c12 (stereo partly drawn) [Compound 5, 5-ethynyl-4-((6R,9S)-1-fluoro-12-(((2R,7aS)-2-fluorotetrahydro-1H-pyrrolizin-7a(5H)-yl)methoxy)-5a,6,7,8,9,10-hexahydro-5H-4-oxa-3,10a,11,13,14-pentaaza-6,9-methanonaphtho[1,8-ab]heptalen-2-yl)naphthalen-2-ol]	77
CC(=O)c1cccc2cc(O)cc(-c3nc4c5c(nc(OC[C@@]67CCCN6C[C@H](F)C7)nc5c3F)N3C[C@H]5CC[C@H](N5)[C@H]3CO4)c12 [Compound 26, 1-(8-((5aS,6S,9R)-1-fluoro-12-(((2R,7aS)-2-fluorotetrahydro-1H-pyrrolizin-7a(5H)-yl)methoxy)-5a,6,7,8,9,10-hexahydro-5H-4-oxa-3,10a,11,13,14-pentaaza-6,9-methanonaphtho[1,8-ab]heptalen-2-yl)-6-hydroxynaphthalen-1-yl) ethan-1-one]	148
COc1ccc2cccc(-c3nc4c5c(nc(OC[C@@]67CCCN6C[C@H](F)C7)nc5c3F)N3C[C@@H]5CC[C@@H](N5)C3CO4)c2c1 (stereo partly drawn) [Compound 17, (6R,9S)-1-fluoro-12-(((2R,7As)-2-fluorotetrahydro-1H-pyrrolizin-7a(5H)-yl)methoxy)-2-(7-methoxynaphthalen-1-yl)-5a,6,7,8,9,10-hexahydro-5H-4-oxa-3,10a,11,13,14-pentaaza-6,9-methanonaphtho[1,8-ab]heptalene]	1000

System: Panc-1 p-ERK
Assay: Phospho-ERK 1/2 assay, Panc-1 (Table 2)
Assay type: cell-based
Conditions: Homo sapiens; Panc-1 cells
Procedure: as §1
(§2) Table 2 describes the p-ERK IC50 values and selectivity over WT-KRAS cell line MKN-1 of the exemplary compounds of the present disclosure and reference compound MRTX-1133.

IC50 [nM]	SMILES
2.3	C#Cc1c(F)ccc2cc(O)cc(-c3ncc4c(N5CC6CCC(C5)N6)nc(OC[C@@]56CCCN5C[C@H](F)C6)nc4c3F)c12 [MRTX-1133, reference compound]

System: WT-KRAS cell line MKN-1
Assay: Phospho-ERK 1/2 assay, WT-KRAS cell line MKN-1 (Table 2)
Assay type: cell-based
Conditions: Homo sapiens; WT-KRAS cell line MKN-1, p-ERK
Procedure: as §1, §2

IC50 [nM]	SMILES
83	C#Cc1c(F)ccc2cc(O)cc(-c3ncc4c(N5CC6CCC(C5)N6)nc(OC[C@@]56CCCN5C[C@H](F)C6)nc4c3F)c12 [MRTX-1133, reference compound]

Same assay, conditions: selectivity over WT-KRAS cell line MKN-1 vs Panc-1 p-ERK

SMILES	Selectivity Fold [Fold]
C#Cc1c(F)ccc2cc(O)cc(-c3ncc4c(N5CC6CCC(C5)N6)nc(OC[C@@]56CCCN5C[C@H](F)C6)nc4c3F)c12 [MRTX-1133, reference compound]	36

System: not listed separately
Assay: In vivo oral bioavailability assay
Conditions: Balb/c mice female, IV bolus 1 mg/kg and oral gavage 30 mg/kg, single dose
Procedure: Single dose following IV bolus (1 mg/kg, 0.2 mg/mL in 1% DMSO, 99% SBE-β-CD (10% w/v) in water) and oral gavage (30 mg/kg, 3 mg/mL in 1% MC in DI water) administration of test compound in Balb/c Mice female. The blood samples were collected at 2 min, 5 min, 10 min, 30 min, 1 hr, 2 hr, 4 hr, 8 hr and 24 hr (additional 32 hr and 48 hr for MRTX1133) after IV bolus, at 15 min, 30 min, 1 hr, 1.5 hr, 2 hr, 3 hr, 4 hr, 8 hr and 24 hr (additional 32 hr and 48 hr for MRTX1133) after PO administration. The plasma concentrations of compounds were determined with UPLC-MS/MS.

Bioavailability (%)	Fa*Fg (%)	SMILES
0.66	0.95	C#Cc1c(F)ccc2cc(O)cc(-c3ncc4c(N5CC6CCC(C5)N6)nc(OC[C@@]56CCCN5C[C@H](F)C6)nc4c3F)c12 [MRTX-1133, reference compound]
